From US10131652B2, “Pyrimidinyloxy benzene derivatives as herbicides” (E. I. DU PONT DE NEMOURS AND COMPANY, priority 2014, dated 2018)

Legend:
Type in all cases: in vivo
[1] = system: barnyardgrass (Echinochloa crus-galli); assay: Test C flooded paddy test plant response; conditions: Flood, 250 g ai/ha; scale of 0 to 100 where 0 is no effect and 100 is complete control; 13 to 15 days
Summary of the method: (§1)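 Readout is a visual 0–100 score (100 = complete control) versus controls at 13–15 days. Plants at 2-leaf stage, flooded to 3 cm, treated through paddy water.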

rice (Oryza sativa) = assay: Test C flooded paddy test plant response; conditions: Flood, 250 g ai/ha; scale of 0 to 100 where 0 is no effect and 100 is complete control; 13 to 15 days
Summary of the method: as §1

[2] = system: small-flower umbrella sedge (Cyperus difformis); assay: Test C flooded paddy test plant response; conditions: Flood, 250 g ai/ha; scale of 0 to 100 where 0 is no effect and 100 is complete control; 13 to 15 days
Summary of the method: as §1

[3] = system: ducksalad (Heteranthera limosa); assay: Test C flooded paddy test plant response; conditions: Flood, 250 g ai/ha; scale of 0 to 100 where 0 is no effect and 100 is complete control; 13 to 15 days
Summary of the method: as §1

[4] = system: morningglory (Ipomoea spp.); assay: Test B pre-/postemergence plant response
Summary of the method: (§2)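 Greenhouse pots, loam/sand soil; compound formulated with surfactant in non-phytotoxic solvent. Preemergence soil spray and postemergence spray at 1–2 leaf stage run simultaneously. Visual injury, 0–100, about 10 days post-treatment.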

[5] = system: barnyardgrass (Echinochloa crus-galli); assay: Test B pre-/postemergence plant response
Summary of the method: as §2

[6] = system: giant foxtail (Setaria faberii); assay: Test B pre-/postemergence plant response
Summary of the method: as §2

[7] = system: wheat (Triticum aestivum); assay: Test B pre-/postemergence plant response
Summary of the method: as §2

[8] = system: large (Lg) crabgrass (Digitaria sanguinalis); assay: Test B pre-/postemergence plant response
Summary of the method: as §2

corn (Zea mays) = assay: Test B pre-/postemergence plant response
Summary of the method: as §2

[9] = system: pigweed (Amaranthus retroflexus); assay: Test B pre-/postemergence plant response
Summary of the method: as §2

[10] = system: velvetleaf (Abutilon theophrasti); assay: Test B pre-/postemergence plant response
Summary of the method: as §2

[11] = 125 g ai/ha, postemergence, 0 to 100 scale, 0 no effect, 100 complete control
[12] = Postemergence, 500 g ai/ha, 0 to 100 scale (0 no effect, 100 complete control)
[13] = Preemergence, 125 g ai/ha, 0 to 100 scale where 0 is no effect and 100 is complete control
[14] = Preemergence, 500 g ai/ha, 0 to 100 scale where 0 is no effect and 100 is complete control
[15] = Postemergence, 1000 g ai/ha, 0 to 100 scale (0 no effect, 100 complete control)
[16] = Preemergence, 1000 g ai/ha, 0 to 100 scale (0 no effect, 100 complete control)

| SMILES | Barnyardgrass plant response rating [1] | Rice plant response rating (rice (Oryza sativa)) | Sedge, Umbrella plant response rating [2] | Ducksalad plant response rating [3] | Plant response rating, Morningglory [4, 11] | Plant response rating, Morningglory [4, 12] | Plant response rating, Morningglory [4, 13] | Plant response rating, Morningglory [4, 14] | Plant response rating, Barnyardgrass [5, 11] | Plant response rating, Barnyardgrass [5, 12] | Plant response rating, Barnyardgrass [5, 13] | Plant response rating, Barnyardgrass [5, 14] | Plant response rating, Foxtail, Giant [6, 11] | Plant response rating, Foxtail, Giant [6, 12] | Plant response rating, Foxtail, Giant [6, 13] | Plant response rating, Foxtail, Giant [6, 14] | Plant response rating, Wheat [7, 11] | Plant response rating, Wheat [7, 12] | Plant response rating, Wheat [7, 13] | Plant response rating, Wheat [7, 14] | also measured |
| --- | --- | --- | --- | --- | --- | --- | --- | --- | --- | --- | --- | --- | --- | --- | --- | --- | --- | --- | --- | --- | --- |
| Cn1nc(C(F)(F)F)cc1-c1ccccc1Oc1ncc(Br)cn1 [Compound 30] | 0 | 0 | 0 | 0 | 0 | 10 | 0 | 0 | 0 | 0 | 0 | 0 | 0 | 10 | 0 | 10 | 0 | 0 | 0 | 0 | Plant response rating, Crabgrass, Large [8, 11]: 0; Plant response rating, Crabgrass, Large [8, 12]: 10; Plant response rating, Crabgrass, Large [8, 13]: 0; Plant response rating, Crabgrass, Large [8, 14]: 20; Plant response rating, Corn (corn (Zea mays); [11]): 0; Plant response rating, Corn (corn (Zea mays); [12]): 0; Plant response rating, Corn (corn (Zea mays); [13]): 0; Plant response rating, Corn (corn (Zea mays); [14]): 0; Plant response rating, Pigweed [9, 11]: 0; Plant response rating, Pigweed [9, 12]: 10; Plant response rating, Pigweed [9, 13]: 0; Plant response rating, Pigweed [9, 14]: 30; Plant response rating, Velvetleaf [10, 11]: 10; Plant response rating, Velvetleaf [10, 12]: 30; Plant response rating, Velvetleaf [10, 13]: 0; Plant response rating, Velvetleaf [10, 14]: 0 |
| Clc1cnc(Oc2ccccc2-c2cc(Cl)cc(Cl)c2)nc1 [Compound 41] | 0 | 0 | 0 | 0 | 0 | 10 | 0 | 0 | 0 | 20 | 0 | 0 | 10 | 20 | 0 | 20 | 0 | 0 | 0 | 0 | Plant response rating, Crabgrass, Large [8, 11]: 10; Plant response rating, Crabgrass, Large [8, 12]: 20; Plant response rating, Crabgrass, Large [8, 13]: 0; Plant response rating, Crabgrass, Large [8, 14]: 10; Plant response rating, Corn (corn (Zea mays); [11]): 0; Plant response rating, Corn (corn (Zea mays); [12]): 10; Plant response rating, Corn (corn (Zea mays); [13]): 0; Plant response rating, Corn (corn (Zea mays); [14]): 0; Plant response rating, Pigweed [9, 11]: 40; Plant response rating, Pigweed [9, 12]: 70; Plant response rating, Pigweed [9, 13]: 0; Plant response rating, Pigweed [9, 14]: 0; Plant response rating, Velvetleaf [10, 11]: 10; Plant response rating, Velvetleaf [10, 12]: 30; Plant response rating, Velvetleaf [10, 13]: 0; Plant response rating, Velvetleaf [10, 14]: 0 |
| FC(F)(F)c1ccc(-c2ccccc2Oc2ncc(Cl)cn2)cc1 [Compound 43] | 0 | 0 | 0 | 0 | 0 | 20 | 0 | 10 | 0 | 20 | 0 | 20 | 0 | 20 | 0 | 70 | 0 | 0 | 0 | 0 | Plant response rating, Crabgrass, Large [8, 11]: 0; Plant response rating, Crabgrass, Large [8, 12]: 20; Plant response rating, Crabgrass, Large [8, 13]: 0; Plant response rating, Crabgrass, Large [8, 14]: 30; Plant response rating, Corn (corn (Zea mays); [11]): 0; Plant response rating, Corn (corn (Zea mays); [12]): 10; Plant response rating, Corn (corn (Zea mays); [13]): 0; Plant response rating, Corn (corn (Zea mays); [14]): 0; Plant response rating, Pigweed [9, 11]: 30; Plant response rating, Pigweed [9, 12]: 70; Plant response rating, Pigweed [9, 13]: 0; Plant response rating, Pigweed [9, 14]: 0; Plant response rating, Velvetleaf [10, 11]: 20; Plant response rating, Velvetleaf [10, 12]: 70; Plant response rating, Velvetleaf [10, 13]: 0; Plant response rating, Velvetleaf [10, 14]: 10 |
| Cc1ccc(Oc2ncc(Cl)cn2)c(-c2cccc(OC(F)(F)F)c2)c1 [Compound 44] | 0 | 0 | 0 | 0 | 20 | 30 | 0 | 0 | 10 | 20 | 0 | 10 | 0 | 10 | 0 | 10 | 0 | 0 | 0 | 0 | Plant response rating, Crabgrass, Large [8, 11]: 10; Plant response rating, Crabgrass, Large [8, 12]: 20; Plant response rating, Crabgrass, Large [8, 13]: 10; Plant response rating, Crabgrass, Large [8, 14]: 70; Plant response rating, Corn (corn (Zea mays); [11]): 0; Plant response rating, Corn (corn (Zea mays); [12]): 20; Plant response rating, Corn (corn (Zea mays); [13]): 0; Plant response rating, Corn (corn (Zea mays); [14]): 0; Plant response rating, Pigweed [9, 11]: 20; Plant response rating, Pigweed [9, 12]: 50; Plant response rating, Pigweed [9, 13]: 0; Plant response rating, Pigweed [9, 14]: 10; Plant response rating, Velvetleaf [10, 11]: 30; Plant response rating, Velvetleaf [10, 12]: 70; Plant response rating, Velvetleaf [10, 13]: 0; Plant response rating, Velvetleaf [10, 14]: 20 |
| Fc1cccc(Oc2ncc(Cl)cn2)c1-c1cccc(OC(F)(F)F)c1 [Compound 46] | 20 | 35 | 50 | 60 | – | – | – | – | – | – | – | – | – | – | – | – | – | – | – | – | Plant response rating, Morningglory [4, 15]: 70; Plant response rating, Morningglory [4, 16]: 10; Plant response rating, Barnyardgrass [5, 15]: 90; Plant response rating, Barnyardgrass [5, 16]: 80; Plant response rating, Foxtail, Giant [6, 15]: 100; Plant response rating, Foxtail, Giant [6, 16]: 100; Plant response rating, Wheat [7, 15]: 20; Plant response rating, Wheat [7, 16]: 10; Plant response rating, Crabgrass, Large [8, 15]: 100; Plant response rating, Crabgrass, Large [8, 16]: 100; Plant response rating, Corn (corn (Zea mays); [15]): 20; Plant response rating, Corn (corn (Zea mays); [16]): 0; Plant response rating, Pigweed [9, 15]: 100; Plant response rating, Pigweed [9, 16]: 100; Plant response rating, Velvetleaf [10, 15]: 100; Plant response rating, Velvetleaf [10, 16]: 20 |
| FC(F)(F)c1cc(-c2ccccc2Oc2ncc(Br)cn2)on1 [Compound 64] | 35 | 0 | 80 | 95 | 70 | 100 | 0 | 60 | 90 | 100 | 60 | 100 | 60 | 80 | 90 | 100 | 0 | 10 | 0 | 30 | Plant response rating, Crabgrass, Large [8, 11]: 60; Plant response rating, Crabgrass, Large [8, 12]: 90; Plant response rating, Crabgrass, Large [8, 13]: 100; Plant response rating, Crabgrass, Large [8, 14]: 100; Plant response rating, Corn (corn (Zea mays); [11]): 20; Plant response rating, Corn (corn (Zea mays); [12]): 30; Plant response rating, Corn (corn (Zea mays); [13]): 0; Plant response rating, Corn (corn (Zea mays); [14]): 20; Plant response rating, Pigweed [9, 11]: 100; Plant response rating, Pigweed [9, 12]: 100; Plant response rating, Pigweed [9, 13]: 100; Plant response rating, Pigweed [9, 14]: 100; Plant response rating, Velvetleaf [10, 11]: 100; Plant response rating, Velvetleaf [10, 12]: 100; Plant response rating, Velvetleaf [10, 13]: 80; Plant response rating, Velvetleaf [10, 14]: 90 |
